In one data set the target is T1, Farnesyltransferase (Rattus norvegicus, UniProt Q02293+Q04631).
T1 construct: Farnesyltransferase was prepared from rat brains; from tissue; host or cells: brain of male SD rats, 6 weeks old (Charles River); dialysed 30-50% ammonium sulfate fraction, crude enzyme solution
Description: Farnesyltransferase-inhibitory test (FT Assay Kit, SPA). The format is biochemical. Particulars: crude enzyme from rat brains; biotin-modified human lamin B C-terminal peptide, 3H-farnesylpyrophosphate; 37° C., 1 hour; read-out: concentration inhibiting farnesyltransferase activity by 50% (converted). The procedure:
Farnesyltransferase was prepared from rat brains according to the method of Y. Reiss et al. (Cell 62, 81 (1990)) and all of the following procedures were performed at 4° C. That is, brains were removed from SD rats (male, 6 weeks old, Charles River) and sliced with a pair of scissors. Then 50 mM tris-hydrochloric acid buffer (pH 7.5)(2 ml per brain) containing 1 mM EDTA, 1 mM EGTA, 0.2 mM phenylmethylsulfonyl fluoride and 0.1 mM leupeptin was added. The mixture was homogenized with a Teflon homogenizer (manufactured by Hamada Rika, Japan) in ice. The extract was centrifuged at 60,000×g for 70 minutes. From the resulting supernatant, the precipitate fraction from 30 to 50 W/V % concentration of ammonium sulfate was recovered, and dialyzed overnight against 20 mM tris-hydrochloric acid buffer (pH 7.5) containing 1 mM dithiothreitol and 20 μM zinc chloride. The dialysed solution was centrifuged at 15,000×g for 10 minutes. […]
Farnesyltransferase activity was determined using FT Assay Kit (manufactured by Amersham) as follows. […] The radioactivity produced by attachment of the ^3 H-farnesylated peptide to the SPA beads was measured with a scintillation counter to determine the amount of the ^3 H-farnesylated peptide. The farnesyltransferase-inhibitory activity of the compound TAN-1813 was calculated from the counts in the presence and absence of the compound TAN-1813.

The test system of a further data set is NIH3T3/K-ras cells. Description: Cell growth-inhibitory test (MTT). Conditions: Mus musculus, NIH3T3, 72 h, 3 days incubation, read-out: concentration inhibiting the growth of NIH3T3/K-ras cells by 50%. Type of data set: cell-based. The procedure: The cell growth-inhibitory activity of the compound TAN-1813 was determined according to a modified method of Mosmann (Journal of Immunological Methods 65, 55 (1983) ) by using a K-ras transformant (NIH3T3/K-ras) of mouse embryonic fibroblast strain NIH3T3. That is, NIH3T3/K-ras cells were suspended in a medium at a cell density of 3×10^4 /ml. The suspension (0.1 ml per well) was dispensed into each well of a 96-well flat-bottomed plate (manufactured by Nunc) containing a solution (10 μl) of varying concentrations of the compound TAN-1813 dissolved in phosphate-buffered saline (PBS). The medium was Dulbecco modified Eagle's minimum essential medium (Whittaker Bioproducts, U.S.A.) containing 10 V/V % fetal calf serum (FCS, Whittaker Bioproducts, U.S.A.). The above plate was incubated for 3 days at 37° C. and 5% CO2. Then, 25 μl of tetrazolium salt MTT (Sigma, U.S.A.) solution (5 mg/ml) dissolved in PBS was added to each well. After incubation for 4 hours, 0.1 ml of 10% SDS solution dissolved in 0.01N hydrochloric acid was added to each well, and the plate was incubated overnight at 37° C. and 5% CO2. Absorbance at 620 nm was measured using Titertek Multiscan Spectrophotometer (Flow, U.S.A.). The growth inhibitory activity (%) was calculated from the absorbance values in the presence and absence of the compound TAN-1813.

A short description of a further data set: Solubility. Type of data set: physicochemical.
For data set [1], the system named is human fibrosarcoma strain HT-1080. Description: In vivo tumor growth inhibitory test. Conditions: 50 mg/kg subcutaneously daily for 4 days beginning 10 days after transplantation; tumor size 18 days after transplantation; HT-1080 in nude mice. As to the method: Cells of human fibrosarcoma strain HT-1080 (2×10^6 cells per mouse) were subcutaneously transplanted to nude mice. Three mice were used for each treated group. The compound TAN-1813 (50 mg/kg) was subcutaneously administered to the mice daily for 4 days beginning 10 days after the transplantation. Anti-tumor activity was evaluated by measuring tumor size 18 days after the transplantation of the cancer cells. Average tumor sizes of 3 mice in the untreated (C) and the compound TAN-1813-treated (T) group were measured, to determine the tumor growth inhibitory activity. The tumor size (mm^3) was calculated from the formula: 0.5×a×b^2 by measuring the major axis (mm) (a) and minor axis (mm) (b) with a calibrater.

SMILES strings stand for the structures. ≈ marks a conversion by molar mass, not a printed value.

Take `C=CC(CCCCC)C1=C(C(=O)C2C(C)C=CC3(O)CC(C(=O)O)CC(C)C23)C(=O)NC1=O` (centres unmarked) [TAN-1813, 5-[2,5-dihydro-4-(1-octen-3-yl)-2,5-dioxo-1H-pyrrole-3-carbonyl]-8a-hydroxy-4,6-dimethyl-1,2,3,4,4a,5,6,8a-octahydro-2-naphthalenecarboxylic acid]: the IC50 is 26.2 µM on Farnesyltransferase and 0.4 µg/mL (≈ 0.874 µM) in the data set on NIH3T3/K-ras cells. In addition, the Solubility result in “Solubility” (in methanol, ethyl acetate, chloroform, and dimethyl sulfoxide) is reported as “Readily soluble”; in the data set “Solubility” (in water, and hexane), “Slightly soluble”. The “tumor size ratio (T/C×100)” value in data set [1] was 46%.
